Data from the supplement of paper PMC13380429.

Experiments:
[1] = system: U2OS; assay: relative viability EC50 (midpoint between 100% and the lowest measured viability); higher = less toxic; details: 72 h
[2] = system: Vero E6; assay: as above; details: 72 h
[3] = system: Calu-3; assay: as above; details: 72 h
[4] = system: A549-ACE2 infected with SARS-CoV-2; assay: morphology score (similarity to uninfected cells); higher = more like uninfected cells; details: 24 h
[5] = system: A549-ACE2; assay: phospholipidosis EC50; higher = less potent phospholipidosis inducer
[6] = system: A549-ACE2 infected with SARS-CoV-2; assay: cell count relative to DMSO; higher = less toxic; details: 24 h
[7] = system: A549-ACE2 infected with SARS-CoV-2; assay: SARS-CoV-2 infection rate relative to DMSO; higher = more infection; details: 24 h
[8] = system: HepG2; assay: drug sensitivity score (DSS) for viability; higher = more toxic; extreme values may be limits of the assay; details: 72 h
[9] = system: U2OS; assay: as above; details: 72 h
[10] = system: Vero E6; assay: as above; details: 72 h
[11] = system: Caco-2; assay: as above; details: 72 h
[12] = system: Calu-3; assay: as above; details: 72 h
[13] = system: A549-ACE2; assay: drug-induced phospholipidosis relative to tamoxifen; higher = more phospholipidosis
[14] = system: HepG2; assay: cell viability relative to DMSO; higher = less toxic; details: 72 h
[15] = system: U2OS; assay: as above; details: 72 h
[16] = system: Vero E6; assay: as above; details: 72 h
[17] = system: Caco-2; assay: as above; details: 72 h
[18] = system: Calu-3; assay: as above; details: 72 h
[19] = system: HepG2; assay: relative viability EC50 (midpoint between 100% and the lowest measured viability); higher = less toxic; details: 72 h
[20] = system: Caco-2; assay: as above; details: 72 h

C[C@@H](NCCCc1cccc(C(F)(F)F)c1)c1cccc2ccccc12 [cinacalcet]
Details	drug sensitivity score	relative viability EC50 [µM]
[1]	–	> 10
[2]	–	> 10
[3]	–	3.06
[8]	2.2	–
[9]	0	–
[10]	0.4	–
[11]	2.9	–
[12]	5.3	–

Details	SARS-CoV-2 infection rate [%]	cell count [%]	cell viability [%]	morphology score	phospholipidosis EC50 [µM]
[4], 0.3 µM	–	–	–	0.09	–
[4], 3 µM	–	–	–	0.67	–
[4], 10 µM	–	–	–	0.55	–
[5], 24 h	–	–	–	–	2.77
[5], 48 h	–	–	–	–	4.97
[5], 72 h	–	–	–	–	5.11
[6], 0.3 µM	–	96	–	–	–
[6], 3 µM	–	103	–	–	–
[6], 10 µM	–	87	–	–	–
[7], 0.3 µM	93	–	–	–	–
[7], 3 µM	59	–	–	–	–
[7], 10 µM	54	–	–	–	–
[14], 1 nM	–	–	98	–	–
[14], 10 nM	–	–	102	–	–
[14], 100 nM	–	–	87.9	–	–
[14], 1000 nM	–	–	96.4	–	–
[14], 10000 nM	–	–	66.3	–	–
[15], 1 nM	–	–	106	–	–
[15], 10 nM	–	–	95.8	–	–
[15], 100 nM	–	–	103	–	–
[15], 1000 nM	–	–	99.6	–	–
[15], 10000 nM	–	–	89.4	–	–
[16], 1 nM	–	–	102	–	–
[16], 10 nM	–	–	106	–	–
[16], 100 nM	–	–	104	–	–
[16], 1000 nM	–	–	101	–	–
[16], 10000 nM	–	–	82.2	–	–
[17], 1 nM	–	–	99.8	–	–
[17], 10 nM	–	–	96.4	–	–
[17], 100 nM	–	–	100	–	–
[17], 1000 nM	–	–	89.1	–	–
[17], 10000 nM	–	–	68.4	–	–
[18], 1 nM	–	–	109	–	–
[18], 10 nM	–	–	109	–	–
[18], 100 nM	–	–	101	–	–
[18], 1000 nM	–	–	98.6	–	–
[18], 10000 nM	–	–	7.3	–	–

drug-induced phospholipidosis [%], [13]
Details	0.3 µM	0.833333 µM	3.33333 µM	6.66667 µM	10 µM	30 µM
24 h	3.21	8.87	65.6	89.9	102	53.7
48 h	2.84	6.54	45.1	87.9	107	–
72 h	4.18	6.97	37.3	82.3	102	–

O=C(O)CCCCCCCC(=O)O [azelaic-acid]
Details	drug sensitivity score	relative viability EC50 [µM]
[1]	–	> 10
[8]	0	–
[9]	0	–
[11]	0	–
[19]	–	> 10
[20]	–	> 10

Details	SARS-CoV-2 infection rate, [7] [%]	cell count, [6] [%]	cell viability, [14] [%]	cell viability, [15] [%]	cell viability, [17] [%]	morphology score, [4]
1 nM	–	–	102	101	105	–
10 nM	–	–	92.3	103	97	–
100 nM	–	–	115	99.4	103	–
0.3 µM	94	103	–	–	–	0.2
1000 nM	–	–	96.4	106	105	–
3 µM	100	95	–	–	–	-0.03
10 µM	98	102	–	–	–	0.06
10000 nM	–	–	99	97.7	95.6	–
30 µM	103	102	–	–	–	0.01

drug-induced phospholipidosis [%], [13]
Details	0.3 µM	0.833333 µM	3.33333 µM	6.66667 µM	10 µM	30 µM
24 h	-0.21	-0.53	-0.9	-0.71	-1.82	0.53
48 h	0.97	-0.84	-1.1	0.62	-0.42	2.28
72 h	3.56	0.0211	0.507	0.701	1.19	4.29

O=C(Nc1ncc(SCCN2CCCC2)s1)[C@]1(c2ccc(S(=O)(=O)C3CC3)cc2)C[C@H]1C1CCCCC1
Details	drug sensitivity score	relative viability EC50 [µM]
[2]	–	> 10
[3]	–	3.34
[8]	4.6	–
[9]	0.8	–
[10]	0	–
[11]	1.3	–
[12]	4.6	–
[19]	–	1.84

Details	SARS-CoV-2 infection rate [%]	cell count [%]	cell viability [%]	morphology score	phospholipidosis EC50 [µM]
[4], 0.3 µM	–	–	–	0.2	–
[4], 3 µM	–	–	–	0.84	–
[4], 10 µM	–	–	–	0.6	–
[4], 30 µM	–	–	–	-0.07	–
[5], 24 h	–	–	–	–	6.5
[5], 48 h	–	–	–	–	5.12
[5], 72 h	–	–	–	–	5.4
[6], 0.3 µM	–	101	–	–	–
[6], 3 µM	–	115	–	–	–
[6], 10 µM	–	118	–	–	–
[6], 30 µM	–	56	–	–	–
[7], 0.3 µM	94	–	–	–	–
[7], 3 µM	27	–	–	–	–
[7], 10 µM	8	–	–	–	–
[7], 30 µM	44	–	–	–	–
[14], 1 nM	–	–	104	–	–
[14], 10 nM	–	–	99.2	–	–
[14], 100 nM	–	–	98.6	–	–
[14], 1000 nM	–	–	90.2	–	–
[14], 10000 nM	–	–	44.8	–	–
[15], 1 nM	–	–	99.4	–	–
[15], 10 nM	–	–	105	–	–
[15], 100 nM	–	–	104	–	–
[15], 1000 nM	–	–	102	–	–
[15], 10000 nM	–	–	74.9	–	–
[16], 1 nM	–	–	96.3	–	–
[16], 10 nM	–	–	94.6	–	–
[16], 100 nM	–	–	97.2	–	–
[16], 1000 nM	–	–	90.5	–	–
[16], 10000 nM	–	–	95.4	–	–
[17], 1 nM	–	–	101	–	–
[17], 10 nM	–	–	98.9	–	–
[17], 100 nM	–	–	98	–	–
[17], 1000 nM	–	–	102	–	–
[17], 10000 nM	–	–	69	–	–
[18], 1 nM	–	–	110	–	–
[18], 10 nM	–	–	93.8	–	–
[18], 100 nM	–	–	96.4	–	–
[18], 1000 nM	–	–	103	–	–
[18], 10000 nM	–	–	14	–	–

drug-induced phospholipidosis [%], [13]
Details	0.3 µM	0.833333 µM	3.33333 µM	6.66667 µM	10 µM	30 µM
24 h	14.6	32.7	73.1	104	117	197
48 h	10.1	21.2	80.9	105	132	–
72 h	11.7	19.3	75.5	114	138	–
